Data as given in paper PMC9975495, “Unveiling the therapeutic potential of cabozantinib-loaded poly D,L-lactic-co-glycolic acid and polysarcosine nanoparticles in inducing apoptosis and cytotoxicity in human HepG2 hepatocellular carcinoma cell lines and in vivo anti-tumor activity in SCID female mice” (Frontiers in Oncology, 2023).

What was measured:
erythrocytes = experiment: Erythrocyte membrane integrity by lactate dehydrogenase release; assay type: cell-based, human; settings: erythrocyte suspension, 10, 50 and 100 µg/mL, 8 hours
Method: Erythrocytes produce lactate dehydrogenase (LDH), which may be measured photometrically using the LDH test kit/Lactate Dehydrogenase Assay Kit (Colorimetric) (ab102526) ([50]). For the LDH investigation, blood was obtained from the neighbouring blood bank. The erythrocyte suspension was made according to the methodology described in our earlier research. In 1mL of erythrocyte solution was treated with specific amount of Cabozantinib (CNB), PLGA-PSar-encapsulated Cabozantinib nanoparticles (CNB-PLGA-PSar-NPs), and placebo (PLGA-PSar-NPs) ([51]). Positive control sample was created by diluting erythrocyte suspension with 1% Triton-X-100, whereas negative control sample was created by diluting erythrocyte suspension with normal saline solution. […] LDH was detected at 500nm after a ready-to-use LDH solution was added to the supernatant. The total of LDH was calculated using the following formula. […]
Where, A sample stands for Cabozantinib, PLGA-PSar-encapsulated Cabozantinib nanoparticles (CNB-PLGA-PSar-NPs) incubated erythrocytes absorbance, A negative control indicates, erythrocytes absorbance of sample, which was pre-treated with normal saline solution. The A standard indicates the absorbance of erythrocytes sustention, which were pre-treated with 150/UL Lactate dehydrogenase (LDH) enzyme. […]

[1] = Pharmacokinetic study, plasma by RP-HPLC; assay type: in vivo, Male Albino Wister rats; settings: rats, 20 mg/kg intravenous
Method: 06 Male Albino Wister rats (200 to 250 g) are separated into two groups (n=3) for the purpose of conducting pharmacokinetic studies ([55]). For up to 72 hours, a comparative plasma concentration-time profile of Cabozantinib (CNB), CNB-PLGA-PSar-NPs was analysed. […] Using the tail vein of rats, 500µL of blood samples were collected at 0, 0.5, 1, 2, 4, 8, 16, 24, 48, and 72 hours from three animals in each group. Blood samples were stored in a microcentrifuge tube and centrifuged at 7,500 rpm for 30 minutes at 25°C to separate supernatant plasma. The collected samples were analysed using the RP-HPLC system and stored at -80°C (1290 Infinity II LC System, Agilent, USA). Using kinetica 5.0 pharmacokinetics software, the obtained RP-HPLC variables were interpreted in terms of their pharmacokinetics (Thermo Fisher Scientific, Yokohama)

Hep Par 1 = experiment: Immunohistochemistry of xenograft tumour sections; assay type: in vivo, SCID female mice; settings: five 400 µm × 400 µm zones
Method: Paraffin 10µm thick sections of xenograft HePG2 cancer cell tissues embedded in liver parenchyma blocks. The blocks were […] in a 10 mM citrate buffer solution and autoclaved for 20 minutes to extract antigens. After heating the section slide blocks, they were allowed to cool for 1.5 hours at room temperature. The sectioned slides were then incubated overnight at 4°C with a primary antibody against Hepatocyte specific antigen (Hep Par 1) (91091816- SK-HEP-1, Sigma-Aldrich, Bengaluru, India). Further, section slides were incubated with enzyme-linked immunosorbent assay (ELISA) horseradish peroxidase (HRP) conjugated Goat anti-Rabbit IgG (H+L) secondary antibody (Thermo Fisher Scientific, Vadodara, Gujarat) for 1hr followed by treatment with 120µL […] (Dako). For analysing the results of Immunohistochemistry, five square zones […] were measured and averaged for the number of stained cells in each sectioned slide. Using GraphPad Prism 9 (San Diego, California) and student t-test statistical analyses were performed.

[2] = Tissue distribution studies; assay type: in vivo, SCID mice; settings: 20 mg/kg i.v. bolus, killed eight hours later
From the text: Tissue distribution studies in mice with SCID are required in anti-liver cancer activity to determine the distribution and concentration of a drug within the body after administration ([54]). This information is important for understanding how the drug is metabolized and cleared by the body, as well as for determining appropriate dosing regimens. Additionally, tissue distribution studies can help to identify any potential toxicities or side effects associated with the drug in specific organs or tissues. In the case of anti-liver cancer activity, knowing the distribution of the drug in the liver would be particularly important to ensure the drug is reaching its target site and effectively inhibiting the growth of cancer cells. The tissue distribution of a bolus dosage of 20 mg/kg i.v. Cabozantinib (CNB), CNB-PLGA-PSar-NPs was documented. The greatest concentration of CNB was found in liver parenchymal hepatocyte tissue. […] The increased affinity of CNB in the liver and pancreas enables the medication molecule to effectively treat liver cancer.
The tissue distribution was studied by separating 18 SCID mice into three groups (each group had six mice). The drug and its Nano formulations were administered intravenously (i.v.) at a bolus dose of 20 mg/kg. Groups of mice were given a dosage and then killed eight hours later. […] The samples were analysed using RP-UHPLC (Dionex Ultimate, 3000). […]

[3] = system: HePG2 cells Xenograft model; experiment: In vivo anti-tumour efficacy study, HePG2 xenograft; set-up: species or system SCID female mice; settings: 20 mg/kg i.v. once weekly, 21 days
Method: The SCID female mice of 8-10 weeks old were used in the in vivo effectiveness study ([53]). SCID stands for severe combined immunodeficiency disorder. Mice were housed in individually ventilated cages with pelleted food, a 12-hour/12-hour dark-light cycle, and unrestricted access to water (supplied ad libitum) in a climate-controlled setting with a temperature range of 25°C ± 3°C. The National Institutes of Health's guidelines for the care and use of animals were followed when conducting all animal experiments, which included those at Animal House of […], India. These facilities also complied with CPCSEA (Committee for the Purpose of Control and Supervision of Experiments on Animals) regulations. Mice were subcutaneously injected with cultured HePG2 cells (5x10^6 cells) in 200μL of RPMI 1640 with 33% Corning Matrigel Basement Membrane Matrix (Sigma-Aldrich, India). […] A digital electronic calliper was used to measure the tumor's size twice a week. To assess toxicity, body weight was monitored twice weekly. Tumour volume was calculated as […]. The SCID female mice were given thiopental anaesthesia prior to being killed by cervical dislocation. Before being implanted in paraffin wax, liver tissues and tumour bulbs from the descending liver were collected and preserved overnight in 10% formalin (CH2O) with a pH 7.4 phosphate buffer solution.

[4] = male, Albino Wister, rat, plasma

Triton X 100
LDH release / erythrocyte membrane integrity (erythrocytes): exceptionally significant LDH release

COc1cc2nccc(Oc3ccc(NC(=O)C4(C(=O)Nc5ccc(F)cc5)CC4)cc3)c2cc1OC [CNB, Cabozantinib]
C0 [1, 4]: 215 ± 16.3 ng/mL
Cmax [1, 4]: 241 ± 34.2 ng/mL
MRT [1, 4]: 7.45 ± 0.24 h
Vd [1, 4]: 1.522 ± 0.00154 L
clearance [1, 4]: 2.08 mL/min
t1/2 [1]: 5.21 ± 0.18 h
Hep Par 1 labelling index (Hep Par 1): 9.22 ± 1.67
tissue distribution [2]: more widely distributed in the parenchymal hepatocyte tissue
reduction in the size of the tumour compared to the vehicle control [3]: 60.3%
LDH release / erythrocyte membrane integrity (erythrocytes): would not alter the integrity of erythrocyte membranes
